The source of these data is patent US11597762B2, “Treatment of a disease of the gastrointestinal tract with an IL-12/IL-23 inhibitor released using an ingestible device” (BIORA THERAPEUTICS, INC., priority 2016, dated 2023).

The series is described as follows: Tacrolimus tissue pharmacokinetics, oral vs intra-cecal ingestible device, in Yorkshire-Cross farm swine. Particulars: intra-cecal compared to oral, 12 hours post-dose, FIG. 76. Format: in vivo. As to the method: No further randomization procedure was employed.
Animals in Group 1 received an ingestible device containing 0.8 mL of vehicle solution (80% alcohol, 20% HCO-60). Animals in Group 2 received orally […] liquid formulation of tacrolimus at 4 mg/0.8 mL per animal (Prograf: 5 mg/mL). Animals in Group 3 received intra-cecally an ingestible device containing tacrolimus at 1 mg in 0.8 mL per ingestible device. Animals in Group 4 received intra-cecally an ingestible device containing tacrolimus at 2 mg in 0.8 mL per ingestible device. Animals in Group 5 received intra-cecally an ingestible device containing tacrolimus at 4 mg in 0.8 mL per ingestible device. […]
Approximately 200˜400 mg of rectal content were collected, if available, with a fecal swab (Copan Diagnostics Nylon Flocked Dry Swabs, 502CS01). The fecal swab was pre-weighed and weighed after collection in the collection tube (Sterile Tube and Cap No Media, PFPM913S), and the sample weight was recorded. […]
For tissue necropsy, small intestine fluid and cecal fluid were collected separately from all the animals into two separate square plastic bottles, and stored at −20° C. The length and diameter of the cecum and the colon was measured from one animal in each group and recorded for reference. […] All samples were weighed, and the tissue sample weights were recorded. […]

In the case of `C=CC[C@@H]1/C=C(\C)C[C@H](C)C[C@H](OC)[C@H]2O[C@@](O)(C(=O)C(=O)N3CCCC[C@H]3C(=O)O[C@H](/C(C)=C/[C@@H]3CC[C@@H](O)[C@H](OC)C3)[C@H](C)[C@@H](O)CC1=O)[C@H](C)C[C@@H]2OC` [tacrolimus], the “mean concentration of tacrolimus in the cecum tissue” value is “higher” and the “mean concentration of tacrolimus in the proximate colon tissue” value is given as “higher”.
